Data published in PMC7472354, “Enhanced Antimicrobial Activity of N-Terminal Derivatives of a Novel Brevinin-1 Peptide from The Skin Secretion of Odorrana schmackeri” (Toxins, 2020).
Where a SMILES comes first, the peptide text is derived from it.

What was measured:
horse red blood cells = conditions: 2 h
Method: The haemolytic activity of synthetic peptides was determined using the horse red blood cells that were extracted from the de-fibroblast whole horse blood (TCS Biosciences Ltd. Buckingham, UK). […] Briefly, the red blood cells were harvested and washed using PBS until all broken red blood cells were removed. Then, a 2% cell suspension was prepared using PBS. The peptide concentrations were set as antimicrobial activity assay and mixed with the red blood cells in the microcentrifuge tubes. After a 2 h-incubation at 37 °C, the tubes were centrifuged and the suspension was transferred into a clear 96 well plate. The absorbance of released haemoglobin in the suspension was detected at 570 nm by a plate reader. Besides, the red blood cells treated with PBS and 1% Triton X-100 were used as the negative and positive controls, respectively. […] The therapeutic index (TI) was further determined as below:(1) TI=HC50/product of n MICsn,

MRSA [1] = assay: Skin disinfection test, pig skin model; design: species or system Staphylococcus aureus; conditions: 10 µL peptide at 1 × MIC on MRSA-inoculated pig skin wound, 37 °C, 4 days; SEM
Method: Specifically, pig skin was sterilized before using. The pig skins were cut into small pieces, and then, a rectangular groove was cut using a skin graft. 100 µL of logarithmic MRSA solution was inoculated on the wound, followed by incubating at 37 °C for 30 min. […] The pictures of wounds were captured by the digital camera after washing thrice with PBS, fixed with 2.5% (w/v) glutaraldehyde and dehydrated with a graded ethanol series. Finally, the MRSA cells which had attached to the wounded pig skin were visualized by SEM (Hitachi S-4800, Tokyo, Japan).

[2] = Circular dichroism, alpha-helical content (K2D3); format: physicochemical; conditions: CD, 50 µM peptide in 50% TFE in 10 mM NH4AC; helical content calculated with K2D3
Method: To further identify the secondary structure of purified peptides, they were dissolved in 10 mM ammonium acetate (NH4AC) and 50% trifluoroethanol (TFE) in 10 mM NH4AC, respectively, to achieve the concentration of 50 µM. […] The circular dichroism (CD) data of the peptides in TFE solution was submitted to the K2D3 webserver to analyse the α-helical content. Moreover, helical wheel projections of brevinin-1OS and its analogues were conducted (Figure A7) and the physicochemical properties of all peptides are summarized in Table 1.
Circular dichroism (CD) was employed to determine the secondary structure of the synthetic peptides in the different environment. The peptides were prepared in the aqueous solution, 10 mM NH4AC solution (pH 7.4), or the membrane mimicking solution, 50% TFE in 10 mM NH4AC, at a concentration of 50 µM. The proportion of helical content of each peptide in the 50% TFE in 10 mM NH4AC was calculated using the online server, K2D3 (http://cbdm-01.zdv.uni-mainz.de/~andrade/k2d3/). Physiochemical properties of the helical forming peptides were calculated online by Heliquest (http://heliquest.ipmc.cnrs.fr). Additionally, the secondary structures of peptides were predicted online by I-TASSER Predictions (https://zhanglab.ccmb.med.umich.edu/I-TASSER/).

MRSA [3] = assay: Time-killing assay; format: cell-based, Staphylococcus aureus; conditions: peptide at 4 × MIC; colony counts on MHA; three independent experiments
Method: The time-killing assays were employed to determine the killing kinetics of the peptides on the selected bacteria strains. The experiment was performed as described previously. In brief, the bacteria culture was prepared the same way as the antimicrobial activity assay. A bacteria suspension (OD600 = 0.1) was mixed with the peptides at the concentration of their corresponding MICs and 4 × MICs. At different time intervals, 10 µL of aliquots of each sample was transferred into a clean tube and a series of 10-fold dilution was prepared in PBS. A volume of 100 µL of diluted bacteria suspension was spread on an MHA plate, and the number of the bacterial colonies that were formed after an overnight-incubation at 37 °C. The bacteria cultured without any treatment was employed as the negative (growth) control. Three experiments were run in triplicate.

| Structure (SMILES) | HC50 (concentration causing 50% haemolysis of the red blood cells) (horse red blood cells) | MRSA on infected pig skin wound after treatment (MRSA [1]) | α-Helicity [2] | time to complete killing of MRSA (MRSA [3]) |
| --- | --- | --- | --- | --- |
| CC(C)C[C@H](NC(=O)[C@H](C)NC(=O)[C@H](Cc1c[nH]c2ccccc12)NC(=O)[C@H](CCCCN)NC(=O)[C@H](CC(C)C)NC(=O)[C@@H](N)Cc1ccccc1)C(=O)N[C@@H](CCCCN)C(=O)N[C@H](C(=O)N[C@@H](C)C(=O)N[C@@H](C)C(=O)N[C@@H](CCCCN)C(N)=O)C(C)C [OSd] (H-FLKWALKVAAK-NH2) | >512 µM | – | – | – |
| CC(C)C[C@H](NC(=O)[C@H](C)NC(=O)[C@H](Cc1c[nH]c2ccccc12)NC(=O)[C@H](CCCCN)NC(=O)[C@@H]1CCCN1C(=O)[C@H](CC(C)C)NC(=O)[C@@H](N)Cc1ccccc1)C(=O)N[C@@H](CCCCN)C(=O)N[C@@H](Cc1c[nH]c2ccccc12)C(=O)N[C@@H](C)C(=O)N[C@@H](C)C(=O)N[C@@H](CCCCN)C(N)=O [OSf] (H-FLPKWALKWAAK-NH2; N-terminus assumed) | – | almost eradicated | 34.8% | ≤ 45 min |
